In patent US5004758A, “Water soluble camptothecin analogs useful for inhibiting the growth of animal tumor cells” (priority 1988, dated 1991):
Where “and” joins values, the source holds several entries; their conditions need not be identical. Equal values may be shown once. Where a name gives a salt, the structure may show the parent alone. Read-outs that look alike come from different tables or passages of the source.

Legend:
in vivo [1] = conditions: mouse, ip
Method: (§2) For in vivo studies L1210 cells were implanted i.p. (10^6 per mouse)
(§3) and drugs were administered i.p. on Days 1 and 5. Increase in lifespan
(§4) (ILS) was based on median survival time of groups of 6 mice treated at th
maximally tolerated dose of the drugs.

P388/Mitoxantrone = assay: ip P388/Mitoxantrone multidrug resistant subline in mice; conditions: for ILS / NCK (net tumor cell kill): P388/Mitoxantrone, ip, Days 1 and 5
Method: Increase in lifespan (ILS) is based on median survival time of groups of 6 mice. Net tumor cell kill (NCK) is calculated from median survival time by standard methods, since survival time is a linear function of the log tumor cell burden.
For the leukemias, these tumors are maintained in DBA/2 mice. […] The leukemias and the M5076 sarcoma are serially transplanted i.p. as ascites cell suspensions while the B16 melanoma lines and the colon carcinoma 26 are serially transplanted as s.c. solid tumors.
For therapeutic trials, tumors are aseptically removed from donor mice and prepared as suspensions for implantation ip into test animals. […] The test animals for the other tumor models are syngeneic female F1 hybrid B6D2F1 mice (C57B1/6 x DBA/2). The inoculum level varies with the type of tumor: P388 leukemia is inoculated at 10^6 cells per mouse, L1210 leukemia at 10^5 or 10^6 cells per mouse, M5076 sarcoma at 5×10^6 cells per mouse. […] After tumor inoculation, mice randomized to treatment groups comprised of 6-8 mice each. In each experiment, there are three groups of untreated control mice. Drugs are dissolved or suspended in appropriate aqueous vehicles and given by a variety of routes and schedules of administration over a range of dose levels. Animals are housed in shoebox cages and are monitored daily for mortality for 30 (L1210), 45 (P388) or 60 (B16, M5076, colon 26) days.

ip M5076 sarcoma = assay: ip-implanted M5076 sarcoma in mice; assay type: in vivo, mouse
Excerpt: (§5) Tumors used in these studies--P388 leukemia and its doxorbicin--and mitoxanrone-resistant sublines, L1210 leukemia, B16 melanoma, B16 melanoma/F10 subline, M5076 sarcoma and colon carcinoma 26--are maintained by serial transplantation in syngeneic strains of mice. For the leukemias, these tumors are maintained in DBA/2 mice. The M5076 sarcoma, the B16 melanoma and its F10 subline are maintained in C57B1/6 mice and the colon sarcinoma 26 is maintained in BALB/c mice. The leukemias and the M5076 sarcoma are serially transplanted i.p. as ascites cell suspensions while the B16 melanoma lines and the colon carcinoma 26 are serially transplanted as s.c. solid tumors.
(§6) For therapeutic trials, tumors are aseptically removed from donor mice and prepared as suspensions for implantation ip into test animals. The test animals for the colon carcinoma 26 are female BALB/c mice (20-25 gm). The test animals for the other tumor models are syngeneic female F1 hybrid B6D2F1 mice (C57B1/6 x DBA/2). The inoculum level varies with the type of tumor: P388 leukemia is inoculated at 10^6 cells per mouse, L1210 leukemia at 10^5 or 10^6 cells per mouse, M5076 sarcoma at 5×10^6 cells per mouse. For implantation of the B16 melanoma lines and the colon carcinoma 26, s.c. tumors from donor mice are minced and homogenized in loose fitting teflon glass homogenizer to give a tumor brei. The inoculum levels are 0.5 ml of a 10 percent (w:v) brei of the B16 melanoma lines and 0.5 ml of a 5 percent (w:v) brei of colon carcinoma 26. After tumor inoculation, mice randomized to treatment groups comprised of 6-8 mice each. In each experiment, there are three groups of untreated control mice. Drugs are dissolved or suspended in appropriate aqueous vehicles and given by a variety of routes and schedules of administration over a range of dose levels. Animals are housed in shoebox cages and are monitored daily for mortality for 30 (L1210), 45 (P388) or 60 (B16, M5076, colon 26) days.

iv P388 leukemia = conditions: mouse, in vivo
Excerpt: Tumors used in these studies P388 leukemia, L1210 leukemia and Lewis lung carcinoma--are maintained by serial transplantation in syngeneic strains of mice, DBA/2 for the leukemias and C57B1/6 for Lewis lung carcinoma. The leukemias are serially transplanted i.p. as ascites cell suspensions while the Lewis lung carcinoma is serially transplanted as a s.c. solid tumor.
For therapeutic trials, tumors were aseptically removed from donor mice and prepared as suspensions for implantation into test animals which for each tumor are syngeneic female F1 hybrid B6D2F1 mice (C57B1/6×DBA/2). The inoculum level varies with the type of tumor: P388 leukemia is inoculated at 10^6 cells per mouse, L1210 leukemia at 10^5 or 10^6 cells per mouse, and Lewis lung carcinoma at 0.25 ml of a 10 percent (w:v) brei. […] After tumor inoculation, mice are randomized to treatment groups of 6 to 8 mice each. In each experiment, there are three groups of untreated control mice.
Drugs are dissolved or suspended in appropriate aqueous vehicles and given i.p. or i.v. on various treatment schedules over a range of dosage levels. Animals are housed in shoebox cages and monitored daily for mortality for 30 (L1210), 45 (P388) or 60 (Lewis lung) days.

Aqueous solubility = assay type: physicochemical
in vivo [2] = conditions: mouse, ip; remark: listed apart in the source
Excerpt: as §5, §6

CACO-2 = assay: Cytotoxicity to tumor cells in culture; assay type: cell-based; conditions: Homo sapiens
Method: (§1) The cell lines are used and maintained as monolayer cultures in Minimal Essential Media (Grand Island Biological Co., Grand Island, N.Y.) supplemented with 10% fetal calf serum in a 5% CO2 humidified incubator at 37° C. Various concentrations of a Formula (I) compound under sterile conditions were allowed to react for 2 hours followed by aspiration of medium or were exposed continuously. Plates are incubated for 7 days at 37° C. in a CO2 incubator. Medium was aspirated and cells were fixed and stained with ethanol and Geisma stain. The surviving cell population was determined by scanning the plates with an image analyzer. The percent inhibition of proliferation was determined relative to cells incubated in the absence of drug and the 50 percent inhibitory concentration (IC50) was determined by interpolation.

B16 Melanoma = assay: Cytotoxicity to tumor cells in culture; assay type: cell-based; conditions: Mus musculus, continuous exposure
Method: as §1

HT-29 = assay: Cytotoxicity to tumor cells in culture; assay type: cell-based; conditions: Homo sapiens
Method: as §1

SW-948 = assay: Cytotoxicity to tumor cells in culture; assay type: cell-based; conditions: Homo sapiens
Method: as §1

K12/Tr Colon Carcinoma = assay: Cytotoxicity to tumor cells in culture; assay type: cell-based; conditions: K12/Tr rat colon carcinoma
Method: as §1

SW-620 = assay: Cytotoxicity to tumor cells in culture; assay type: cell-based; conditions: Homo sapiens
Method: as §1

SKCO-1 = assay: Cytotoxicity to tumor cells in culture; assay type: cell-based; conditions: Homo sapiens
Method: as §1

DLD-1 = assay: Cytotoxicity to tumor cells in culture; assay type: cell-based; conditions: Homo sapiens
Method: as §1

LOVO = assay: Cytotoxicity to tumor cells in culture; assay type: cell-based; conditions: Homo sapiens
Method: as §1

WIDR = assay: Cytotoxicity to tumor cells in culture; assay type: cell-based; conditions: Homo sapiens
Method: as §1

L1210 Leukemia = assay: Cytotoxicity to tumor cells in culture; assay type: cell-based; conditions: Mus musculus, 2 hr exposure
Method: as §1

sc colon carcinoma 26 = assay: sc-implanted colon carcinoma 26 in mice; assay type: in vivo, mouse; conditions: for Tumor growth inhibition (TGI): sc Colon 26, B/ip (Days 1, 5, 9 and 13)
Excerpt: The inoculum varies with the tumor.

ip L1210 leukemia = assay: ip-implanted L1210 leukemia in mice; conditions: mouse, in vivo, ip;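 note: each mouse received 10^6 L1210 cells intraperitoneally, with drug treatment also given by the i.p. route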
Method: as §2, §3, §4
maximally tolerated dose of the drugs.

in vivo [3] = conditions: mouse, ip; remark: listed apart in the source
[4] = tested on: eight cultured human colon tumor cell lines; assay: Cytotoxicity in series of eight cultured human colon tumor cell lines; assay type: cell-based
Method: For a brief exposure (2 hours) to the drug, the 50 percent inhibitory concentration ranged from 0.12-2.1 μg/ml.
as §1

ip colon carcinoma 26 = assay: ip-implanted colon carcinoma 26 in mice; assay type: in vivo, mouse; conditions: ip Colon 26, B/ip (Days 1, 5, 9 and 13)
Excerpt: as §5, §6

[5] = ip M5076, single dose on Days 1, 5, 9 and 13 ip, additional study
[6] = ip M5076, single dose on Days 1, 5 and 9 ip, additional study
[7] = 2 hr exposure, 7-day incubation, read-out: IC50 2 Hr. Exposure
[8] = 168 h, continuous 7-day exposure, read-out: IC50 Continuous Exposure

Compound: CC[C@@]1(O)C(=O)OCc2c1cc1n(c2=O)Cc2cc3c(CN(C)C)c(O)ccc3nc2-1 [Compound No. 1S, (20 S) 9-Dimethylaminomethyl-10-hydroxycamptothecin Acetate Salt]
- MTD (in vivo [1]): 15 mg/kg
- ILS (P388/Mitoxantrone; 3.2 mg/kg): 29%
- NCK (net tumor cell kill) (P388/Mitoxantrone; 3.2 mg/kg): 0 log
- ILS (P388/Mitoxantrone; 5.4 mg/kg): 57%
- NCK (net tumor cell kill) (P388/Mitoxantrone; 5.4 mg/kg): 2.1 log
- ILS (P388/Mitoxantrone; 9 mg/kg): 79%
- NCK (net tumor cell kill) (P388/Mitoxantrone; 9 mg/kg): 3.6 log
- NCK (net tumor cell kill) (P388/Mitoxantrone; 15 mg/kg): 5.7 log
- ILS (P388/Mitoxantrone; 25 mg/kg): toxic
- sensitivity / resistance of subline (P388/Mitoxantrone; P388/mitoxantrone in mice): retained sensitivity
- Increase in lifespan (ILS) (ip M5076 sarcoma; ip M5076, C/ip (every 3 hours x4 on Days 1, 5 and 9), 0.62 mg/kg/injection): 70%
- Increase in lifespan (ILS) (ip M5076 sarcoma; ip M5076, C/ip (every 3 hours x4 on Days 1, 5 and 9), 1.2 mg/kg/injection): 75%
- Increase in lifespan (ILS) (ip M5076 sarcoma; ip M5076, C/ip (every 3 hours x4 on Days 1, 5 and 9), 5 mg/kg/injection): toxic
- Increase in lifespan (ILS) (ip M5076 sarcoma; ip M5076, C/ip (every 3 hours x4 on Days 1, 5 and 9), 10 mg/kg/injection): toxic
- Increase in lifespan (ILS) (ip M5076 sarcoma; ip M5076, C/sc (every 3 hours x4 on Days 1, 5 and 9), 0.62 mg/kg/injection): 36%
- Increase in lifespan (ILS) (ip M5076 sarcoma; ip M5076, C/sc (every 3 hours x4 on Days 1, 5 and 9), 1.2 mg/kg/injection): 70%
- Increase in lifespan (ILS) (ip M5076 sarcoma; ip M5076, C/sc (every 3 hours x4 on Days 1, 5 and 9), 5 mg/kg/injection): toxic
- Increase in lifespan (ILS) (ip M5076 sarcoma; ip M5076, C/sc (every 3 hours x4 on Days 1, 5 and 9), 10 mg/kg/injection): toxic
- ILS (ip M5076 sarcoma; [5]): 71%
- cures (ip M5076 sarcoma; [5]): 1/8
- ILS (ip M5076 sarcoma; [6]): 75%
- cures (ip M5076 sarcoma; [6]): 1/8
- ILS (ip M5076 sarcoma; mouse, in vivo): 57
- Long-Term Survivors (ip M5076 sarcoma; mouse, in vivo, 1.2 mg/kg): 1/8
- Long-Term Survivors (ip M5076 sarcoma; mouse, in vivo, ip, 0.62 mg/kg): 1/8
- Long-Term Survivors (ip M5076 sarcoma; mouse, in vivo, ip, 1.2 mg/kg): 1/8
- Increase in lifespan (ILS) (iv P388 leukemia; 3.2 mg/kg): 42%
- Increase in lifespan (ILS) (iv P388 leukemia; 5.4 mg/kg): 58%
- ILS (iv P388 leukemia; 15 mg/kg): 125
- Increase in lifespan (ILS) (iv P388 leukemia; 15 mg/kg): 132%
- cures (iv P388 leukemia; 15 mg/kg): 1/6
- Long-Term Survivors (iv P388 leukemia; 25 mg/kg): 2/6
- Increase in Lifespan (ILS) or Inhibition of Tumor Growth (TGI) (iv P388 leukemia; iv): Curative
- Increase in lifespan (ILS) (iv P388 leukemia; iv, 7.9 mg/kg): 65%
- Increase in lifespan (ILS) (iv P388 leukemia; iv, 14 mg/kg): 145%
- Long-Term Survivors (iv P388 leukemia; iv, 19 mg/kg): 2/6
- Increase in lifespan (ILS) (iv P388 leukemia; iv, 25 mg/kg): toxic
- solubility in water / aqueous vehicles (Aqueous solubility): water-soluble
- MTD (in vivo [2]): 15 mg/kg
- IC50 (CACO-2; [7]): 1.7 µg/mL
- IC50 (CACO-2; [8]): 0.075 µg/mL
- IC50 (B16 Melanoma): 0.62 µg/mL
- IC50 (HT-29; [7]): 0.58 µg/mL
- IC50 (HT-29; [8]): 0.016 µg/mL
- IC50 (SW-948; SW948, 2 hr exposure, 7-day incubation, read-out: IC50 2 Hr. Exposure): 0.26 µg/mL
- IC50 (SW-948; SW948, 168 h, continuous 7-day exposure, read-out: IC50 Continuous Exposure): 0.016 µg/mL
- IC50 (K12/Tr Colon Carcinoma; 2 hr exposure, read-out: IC50 2 Hr. Exposure): 3.9 µg/mL
- IC50 (K12/Tr Colon Carcinoma; continuous exposure, read-out: IC50 Continuous Exposure): 0.084 µg/mL
- IC50 (SW-620; [7]): 0.12 µg/mL
- IC50 (SW-620; [8]): 0.0065 µg/mL
- IC50 (SKCO-1; SK-CO-1, 2 hr exposure, 7-day incubation, read-out: IC50 2 Hr. Exposure): 0.23 µg/mL
- IC50 (SKCO-1; SK-CO-1, 168 h, continuous 7-day exposure, read-out: IC50 Continuous Exposure): 0.0039 µg/mL
- IC50 (DLD-1; [7]): 0.44 µg/mL
- IC50 (DLD-1; [8]): 0.015 µg/mL
- IC50 (LOVO; [7]): 0.58 µg/mL
- IC50 (LOVO; [8]): 0.0097 µg/mL
- IC50 (WIDR; [7]): 2.1 µg/mL
- IC50 (WIDR; [8]): 0.025 µg/mL
- IC50 (L1210 Leukemia): 1.4 µg/mL
- inhibition of tumor growth at the maximally tolerated dose (sc colon carcinoma 26; mouse, in vivo, sc): > 70
- Tumor growth inhibition (TGI) (sc colon carcinoma 26; 5 mg/kg/injection): 39%
- Tumor growth inhibition (TGI) (sc colon carcinoma 26; 10 mg/kg/injection): 72%
- Tumor growth inhibition (TGI) (sc colon carcinoma 26; 20 mg/kg/injection): toxic
- Increase in Lifespan (ILS) or Inhibition of Tumor Growth (TGI) (sc colon carcinoma 26; sc Colon Carcinoma 26, optimal doses and optimal schedules): 72 % TGI
- Increase in Lifespan (ILS) or Inhibition of Tumor Growth (TGI) (ip L1210 leukemia): Curative
- Increase in lifespan (ILS) (ip L1210 leukemia; 3.2 mg/kg): 31%
- Increase in lifespan (ILS) (ip L1210 leukemia; 5.4 mg/kg): 81%
- Increase in lifespan (ILS) (ip L1210 leukemia; 9 mg/kg): 138%
- Increase in lifespan (ILS) (ip L1210 leukemia; 15 mg/kg): 219%
- Long-Term Survivors (ip L1210 leukemia; 15 mg/kg): 2/6
- Increase in lifespan (ILS) (ip L1210 leukemia; 25 mg/kg): toxic
- long term survivors at the maximally tolerated doses (ip L1210 leukemia; Acetate Salt): 1/6 and 0/6 and 2/6 and 5/6
- MTD (in vivo [3]): 15 mg/kg
- IC50 ([4]; 168 h, drug left in medium for full 7-day period, read-out: IC50 values, range over eight lines): 0.0039 to 0.075 µg/mL
- IC50 ([4]; brief exposure (2 hours), read-out: 50 percent inhibitory concentration, range over eight lines): 0.12 to 2.1 µg/mL
- Increase in lifespan (ILS) (ip colon carcinoma 26; 5 mg/kg/injection): 5%
- Increase in lifespan (ILS) (ip colon carcinoma 26; 10 mg/kg/injection): 25%
- Increase in lifespan (ILS) (ip colon carcinoma 26; 20 mg/kg/injection): toxic
- Increase in lifespan (ILS) (ip colon carcinoma 26; 40 mg/kg/injection): toxic
